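Abbreviation: GI50, concentration required for 50% inhibition of growth. TGI: total growth inhibition.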
What was measured:
Test in all cases: NCI tumour cell line growth inhibition, 384-well format
MOLT-4 leukemia = system: MOLT-4 leukemia
HOP-62 NSCLC = system: HOP-62 NSCLC
NCI-H322M lung = system: NCI-H322M lung
MDA-MB-231 breast = system: MDA-MB-231 breast
BT-549 breast = system: BT-549 breast
CAKI-1 renal = system: CAKI-1 renal
OVCAR-8 ovarian = system: OVCAR-8 ovarian
SF-539 CNS = system: SF-539 CNS
SK-OV-3 ovarian = system: SK-OV-3 ovarian
SK-MEL-2 melanoma = system: SK-MEL-2 melanoma
MCF7 breast = system: MCF7 breast
SN12C renal = system: SN12C renal
HS 578T breast = system: HS 578T breast
RXF 393 renal = system: RXF 393 renal
NCI-H226 lung = system: NCI-H226 lung
SF-295 CNS = system: SF-295 CNS
OVCAR-5 ovarian = system: OVCAR-5 ovarian
RPMI-8226 leukemia = system: RPMI-8226 leukemia
KM12 colon = system: KM12 colon
NCI-H522 lung = system: NCI-H522 lung
U251 glioblastoma = system: U251 glioblastoma
SNB-19 CNS = system: SNB-19 CNS
M14 melanoma = system: M14 melanoma
SK-MEL-5 melanoma = system: SK-MEL-5 melanoma
UACC-257 melanoma = system: UACC-257 melanoma
CCRF-CEM leukemia = system: CCRF-CEM leukemia
786-0 renal = system: 786-0 renal
MDA-MB-468 breast = system: MDA-MB-468 breast

## CNC(=O)c1ccc2cc(C3(O)CCn4cncc43)ccc2c1 (stereo unspecified)
MOLT-4 leukemia
  GI50: > 100 µM
  TGI: > 100 µM
HOP-62 NSCLC
  GI50: > 100 µM
  TGI: > 100 µM
NCI-H322M lung
  GI50: > 100 µM
  TGI: > 100 µM
MDA-MB-231 breast
  GI50: > 100 µM
  TGI: > 100 µM
BT-549 breast
  GI50: > 100 µM
  TGI: > 100 µM
CAKI-1 renal
  GI50: > 100 µM
  TGI: > 100 µM
OVCAR-8 ovarian
  GI50: > 100 µM
  TGI: > 100 µM
SF-539 CNS
  GI50: > 100 µM
  TGI: > 100 µM
SK-OV-3 ovarian
  GI50: > 100 µM
  TGI: > 100 µM
SK-MEL-2 melanoma
  GI50: > 100 µM
  TGI: > 100 µM
MCF7 breast
  GI50: > 100 µM
  TGI: > 100 µM
SN12C renal
  GI50: > 100 µM
  TGI: > 100 µM
HS 578T breast
  GI50: > 100 µM
  TGI: > 100 µM
RXF 393 renal
  GI50: > 100 µM
  TGI: > 100 µM
NCI-H226 lung
  GI50: > 100 µM
  TGI: > 100 µM
SF-295 CNS
  GI50: > 100 µM
  TGI: > 100 µM
OVCAR-5 ovarian
  GI50: > 100 µM
  TGI: > 100 µM
RPMI-8226 leukemia
  GI50: > 100 µM
  TGI: > 100 µM
KM12 colon
  GI50: > 100 µM
  TGI: > 100 µM
NCI-H522 lung
  GI50: > 100 µM
  TGI: > 100 µM
U251 glioblastoma
  GI50: > 100 µM
  TGI: > 100 µM
SNB-19 CNS
  GI50: > 100 µM
  TGI: > 100 µM
M14 melanoma
  GI50: > 100 µM
  TGI: > 100 µM
SK-MEL-5 melanoma
  GI50: > 100 µM
  TGI: > 100 µM
UACC-257 melanoma
  GI50: > 100 µM
  TGI: > 100 µM
CCRF-CEM leukemia
  GI50: > 100 µM
  TGI: > 100 µM
786-0 renal
  GI50: > 100 µM
  TGI: > 100 µM
MDA-MB-468 breast
  GI50: > 100 µM
  TGI: > 100 µM

Reference: PubChem BioAssay (NCI)
